Assay results taken from US4444769A, “Antihypertensive diuretic combination composition and associated method” (Mylan Pharmaceuticals, Inc., priority 1983, dated 1984).

Legend:
[1] = administration of 100 mg; differently formulated compositions; cited from earlier work
[2] = test system: hypertensive individuals who had become hypokalemic
Method: In an effort to determine the minimum amount of triamterene needed to reverse the hypokalemia precipitated by hydrochlorothiazide, each subject was continued on hydrochlorothiazide, 50 mg/day administered in a separate tablet, and was also given one of the following daily dosages of triamterene, administered in suspension form throughout the testing period: 0 mg, 25 mg, 50 mg, 75 mg, and 100 mg.

Structure (SMILES): Nc1nc(N)c2nc(-c3ccccc3)c(N)nc2n1 [triamterene, 2,4,7-triamino-6-phenylpteridine]
- limit in absorptive capacity of the gastrointestinal tract, mean [1]: ~39%
- reversal of hydrochlorothiazide-induced hypokalemia, response ([2]; about 75 mg triamterene with 50 mg hydrochlorothiazide): near maximal response
- effectiveness for reversing hydrochlorothiazide-induced hypokalemia ([2]; upper ranges of the doses tested): particularly large in the upper ranges of the doses tested
